Tests used:
[1] = tested on: Skin Tissue Model; assay: Dermal irritation, Mat-Tek in-vitro Skin Tissue Model (non-animal); type: cell-based
Source text: (§1) These studies were done using non-animal test protocols. Skin Tissue Model and Ocular Tissue Model by Mat-Tek Corporation in-vitro systems were used for dermal and ocular irritation studies.

[2] = tested on: Ocular Tissue Model; assay: Ocular irritation, Mat-Tek in-vitro Ocular Tissue Model (non-animal); type: cell-based
Source text: as §1

“nonylphenol 10 EO Ethoxylate [Positive Control]” was tested, and the “Dermal Tox Irritation Ratings/Classifications” value [1] was “Moderate to mild range” and the “Ocular Tox Irritation Ratings/Classifications” value [2] was “Moderate to mild range”.

Source: US6464991B1, “Oat lipid based surfactants and derivatives and process for preparing same” (Finetex, Inc., priority 1999, dated 2002)
